Laboratory results from patent US11661426B2, “Imidazole-containing inhibitors of ALK2 kinase” (BioCryst Pharmaceuticals, Inc., priority 2017, dated 2023).

Target: ALK2 (Homo sapiens (Human), UniProt Q04771)
Assay: ALK2 inhibition, LanthaScreen Eu Kinase Binding Assay (ThermoFisher Scientific / Life Technologies)
Conditions: read-out: Measured Ki (IC50) Value for Compounds: IC50
Protocol: Biochemical assays to measure the inhibitory effects of the compounds were performed by ThermoFisher Scientific (Life Technologies). ALK2 inhibition was tested using LanthaScreen™ Eu Kinase Binding Assay screening protocol.

ALK2, sequence (Q04771 21-509): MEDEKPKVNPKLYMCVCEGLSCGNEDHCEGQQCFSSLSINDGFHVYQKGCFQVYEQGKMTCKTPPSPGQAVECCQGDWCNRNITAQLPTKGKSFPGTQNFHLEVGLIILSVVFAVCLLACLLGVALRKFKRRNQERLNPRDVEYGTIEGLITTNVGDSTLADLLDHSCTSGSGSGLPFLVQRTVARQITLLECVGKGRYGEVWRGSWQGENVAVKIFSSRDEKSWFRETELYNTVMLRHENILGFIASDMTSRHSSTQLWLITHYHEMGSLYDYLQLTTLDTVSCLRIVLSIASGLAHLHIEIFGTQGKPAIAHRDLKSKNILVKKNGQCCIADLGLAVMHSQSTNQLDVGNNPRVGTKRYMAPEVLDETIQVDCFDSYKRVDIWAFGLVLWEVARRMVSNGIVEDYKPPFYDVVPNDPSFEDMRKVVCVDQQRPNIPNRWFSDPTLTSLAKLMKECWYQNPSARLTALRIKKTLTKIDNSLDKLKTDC

Row | Structure (SMILES) | IC50
1 | COc1cccc(-n2cnc(Nc3nc(N4CCC[C@H]4CO)nn4cccc34)c2)c1 [Compound 56c, (S)-(1-(4-((1-(3-methoxyphenyl)-1H-imidazol-4-yl)amino)pyrrolo[2,1-f][1,2,4]triazin-2-yl)pyrrolidin-2-yl)methanol] | < 100 nM
2 | COc1cc(-n2cnc(Nc3nc(N4CCC[C@H]4C(N)=O)nc4sc(CN5CCCCC5)cc34)c2)cc(OC)c1OC [Compound 406b, (S)-1-(6-(piperidin-1-ylmethyl)-4-((1-(3,4,5-trimethoxyphenyl)-1H-imidazol-4-yl)amino)thieno[2,3-d]pyrimidin-2-yl)pyrrolidine-2-carboxamide] | < 100 nM
3 | COc1cc(-n2cnc(Nc3nc(N4CCC[C@H]4CO)c4ncn(C)c4n3)c2)cc(OC)c1OC [Compound 388b, (S)-(1-(9-methyl-2-((1-(3,4,5-trimethoxyphenyl)-1H-imidazol-4-yl)amino)-9H-purin-6-yl)pyrrolidin-2-yl)methanol] | < 100 nM
4 | OC[C@@H]1CCCN1c1cc(Cl)c2ccccc2n1 [Compound 367b, (S)-(1-(4-chloroquinolin-2-yl)pyrrolidin-2-yl)methanol] | > 1000 nM
5 | COc1cc(-n2cnc(Nc3nc(N4CCC[C@H]4C(N)=O)nn4c(CN5CCNCC5)ccc34)c2)cc(OC)c1OC [Compound 245c, (S)-1-(7-(piperazin-1-ylmethyl)-4-((1-(3,4,5-trimethoxyphenyl)-1H-imidazol-4-yl)amino)pyrrolo[2,1-f][1,2,4]triazin-2-yl)pyrrolidine-2-carboxamide] | < 100 nM
6 | CC(=O)c1cc(-n2cnc(Nc3nc(N4CCC[C@H]4CO)nn4cccc34)c2)ccc1O [Compound 123c, (S)-1-(2-hydroxy-5-(4-((2-(2-(hydroxymethyl)pyrrolidin-1-yl)pyrrolo[2,1-f][1,2,4]triazin-4-yl)amino)-1H-imidazol-1-yl)phenyl)ethanone] | < 100 nM
7 | COc1cc(-n2cnc(Nc3nc4c(c(N5CCC[C@H]5CO)n3)CCN(C(=O)OC(C)(C)C)C4)c2)cc(OC)c1OC [Compound 182c, (S)-tert-butyl 4-(2-(hydroxymethyl)pyrrolidin-1-yl)-2-((1-(3,4,5-trimethoxyphenyl)-1H-imidazol-4-yl)amino)-5,6-dihydropyrido[3,4-d]pyrimidine-7(8H)-carboxylate] | < 100 nM
8 | COc1cc(F)c(CC(=O)N2CCN(c3nc(Nc4cn(-c5ccccc5)cn4)c4ccsc4n3)CC2)c(F)c1 [Compound 45d, 2-(2,6-difluoro-4-methoxyphenyl)-1-(4-(4-((1-phenyl-1H-imidazol-4-yl)amino)thieno[2,3-d]pyrimidin-2-yl)piperazin-1-yl)ethanone] | 100 to 1000 nM
9 | COc1cc(-n2cnc(Nc3nc(N4CCC[C@H]4CO)nc4c3CCN(CCC(N)=O)C4)c2)cc(OC)c1OC [Compound 254a, (S)-3-(2-(2-(hydroxymethyl)pyrrolidin-1-yl)-4-((1-(3,4,5-trimethoxyphenyl)-1H-imidazol-4-yl)amino)-5,6-dihydropyrido[3,4-d]pyrimidin-7(8H)-yl)propanamide] | < 100 nM
10 | CCOc1ccc(-n2cnc(Nc3nc(N4CCC[C@H]4CO)c4cccn4n3)c2)cc1OCC [Compound 256d, (S)-(1-(2-((1-(3,4-diethoxyphenyl)-1H-imidazol-4-yl)amino)pyrrolo[2,1-f][1,2,4]triazin-4-yl)pyrrolidin-2-yl)methanol] | > 1000 nM
11 | COc1cc(-n2cnc(Nc3cc(C(=O)O)cc4ccoc34)c2)cc(OC)c1OC [Compound 411c, 7-((1-(3,4,5-trimethoxyphenyl)-1H-imidazol-4-yl)amino)benzofuran-5-carboxylic acid] | 100 to 1000 nM
12 | COc1cc(-n2cnc(Nc3nc(N4CCC[C@@H]4CO)nc4c3CCC4)c2)cc(OC)c1OC [Compound 290a, (R)-(1-(4-((1-(3,4,5-trimethoxyphenyl)-1H-imidazol-4-yl)amino)-6,7-dihydro-5H-cyclopenta[d]pyrimidin-2-yl)pyrrolidin-2-yl)methanol] | < 100 nM
13 | COc1cc(-n2cnc(Nc3nc(N4CCC[C@@H]4CO)nc4c3CCCC4)c2)cc(OC)c1OC [Compound 295b, (R)-(1-(4-((1-(3,4,5-trimethoxyphenyl)-1H-imidazol-4-yl)amino)-5,6,7,8-tetrahydroquinazolin-2-yl)pyrrolidin-2-yl)methanol] | < 100 nM
14 | COc1cc(-n2cnc(Nc3nc(N4CCC[C@@H]4CO)nc4scnc34)c2)cc(OC)c1OC [Compound 317a, (R)-(1-(7-((1-(3,4,5-trimethoxyphenyl)-1H-imidazol-4-yl)amino)thiazolo[5,4-d]pyrimidin-5-yl)pyrrolidin-2-yl)methanol] | < 100 nM
15 | COc1cc(-n2cnc(Nc3nc(N4CCC[C@H]4CO)nc4cc(F)ccc34)c2)cc(OC)c1OC [Compound 269a, (S)-(1-(7-fluoro-4-((1-(3,4,5-trimethoxyphenyl)-1H-imidazol-4-yl)amino)quinazolin-2-yl)pyrrolidin-2-yl)methanol] | < 100 nM
16 | COc1cc(-n2cnc(Nc3nc(N4CCC[C@@H]4CO)nc4ccoc34)c2)cc(OC)c1OC [Compound 294a, (R)-(1-(4-((1-(3,4,5-trimethoxyphenyl)-1H-imidazol-4-yl)amino)furo[3,2-d]pyrimidin-2-yl)pyrrolidin-2-yl)methanol] | < 100 nM

Row | Structure (SMILES) | IC50
17 | COc1cc(-n2cnc(Nc3nc(N4CCC[C@@H]4CO)nc4ccccc34)c2)cc(OC)c1OC [Compound 304a, (R)-(1-(4-((1-(3,4,5-trimethoxyphenyl)-1H-imidazol-4-yl)amino)quinazolin-2-yl)pyrrolidin-2-yl)methanol] | < 100 nM
18 | COc1cc(-n2cnc(Nc3nc(N4CCC[C@H]4CO)nc4c3cnn4C3CCCCO3)c2)cc(OC)c1OC (stereo partly drawn) [Compound 326c, ((2S)-1-(1-(tetrahydro-2H-pyran-2-yl)-4-((1-(3,4,5-trimethoxyphenyl)-1H-imidazol-4-yl)amino)-1H-pyrazolo[3,4-d]pyrimidin-6-yl)pyrrolidin-2-yl)methanol] | < 100 nM
19 | Cn1cnc(Nc2nc(N3CCCC3c3cccnc3)nn3cccc23)c1 (centres unmarked) [Compound 19a, N-(1-methyl-1H-imidazol-4-yl)-2-(2-(pyridin-3-yl)pyrrolidin-1-yl)pyrrolo[2,1-f][1,2,4]triazin-4-amine] | < 100 nM
20 | COc1cc(-n2cnc(Nc3nc(N4CCC[C@H]4CO)nc4cc(C(F)(F)F)ccc34)c2)cc(OC)c1OC [Compound 284c, (S)-(1-(7-(trifluoromethyl)-4-((1-(3,4,5-trimethoxyphenyl)-1H-imidazol-4-yl)amino)quinazolin-2-yl)pyrrolidin-2-yl)methanol] | < 100 nM
21 | COc1cc(-n2cnc(Nc3nc(C(=O)N4CCCC4)c4cccn4n3)c2)cc(OC)c1OC [Compound 419b, pyrrolidin-1-yl(2-((1-(3,4,5-trimethoxyphenyl)-1H-imidazol-4-yl)amino)pyrrolo[2,1-f][1,2,4]triazin-4-yl)methanone] | 100 to 1000 nM
22 | COc1cc(-n2cnc(Nc3nc(N4CCC[C@H]4CO)nn4cccc34)c2)cc(C(N)=O)c1O [Compound 268b, (S)-2-hydroxy-5-(4-((2-(2-(hydroxymethyl)pyrrolidin-1-yl)pyrrolo[2,1-f][1,2,4]triazin-4-yl)amino)-1H-imidazol-1-yl)-3-methoxybenzamide] | < 100 nM
23 | COc1ccc(-c2nc(Nc3cn(-c4cc(OC)c(OC)c(OC)c4)cn3)c3cccn3n2)cc1 [Compound 88a, 2-(4-methoxyphenyl)-N-(1-(3,4,5-trimethoxyphenyl)-1H-imidazol-4-yl)pyrrolo[2,1-f][1,2,4]triazin-4-amine] | < 100 nM
24 | COc1cc(-n2cnc(Nc3nc4c(c(N5CCCC5)n3)CN(Cc3ccccc3)CC4)c2)cc(OC)c1OC [Compound 224b, 6-benzyl-4-(pyrrolidin-1-yl)-N-(1-(3,4,5-trimethoxyphenyl)-1H-imidazol-4-yl)-5,6,7,8-tetrahydropyrido[4,3-d]pyrimidin-2-amine] | < 100 nM
25 | COc1cc(-n2cnc(Nc3nc4c(c(N5CCC[C@H]5CO)n3)COC4)c2)cc(OC)c1OC [Compound 279c, (S)-(1-(2-((1-(3,4,5-trimethoxyphenyl)-1H-imidazol-4-yl)amino)-5,7-dihydrofuro[3,4-d]pyrimidin-4-yl)pyrrolidin-2-yl)methanol] | < 100 nM
26 | COc1cc(-n2cnc(Nc3nc(N4CC[C@@H](O)C4)nc4ccoc34)c2)cc(OC)c1OC [Compound 236a, (R)-1-(4-((1-(3,4,5-trimethoxyphenyl)-1H-imidazol-4-yl)amino)furo[3,2-d]pyrimidin-2-yl)pyrrolidin-3-ol] | < 100 nM
27 | OC[C@@H]1CCCN1c1nc(Nc2cn(-c3ccc(F)cc3)cn2)c2sccc2n1 [Compound 58b, (S)-(1-(4-((1-(4-fluorophenyl)-1H-imidazol-4-yl)amino)thieno[3,2-d]pyrimidin-2-yl)pyrrolidin-2-yl)methanol] | < 100 nM
28 | Cn1cnc(Nc2nc(N3CCC[C@H]3c3ccccc3)nn3cccc23)c1 [Compound 15a, (S)—N-(1-methyl-1H-imidazol-4-yl)-2-(2-phenylpyrrolidin-1-yl)pyrrolo[2,1-f][1,2,4]triazin-4-amine] | < 100 nM
29 | CCN(CCO)c1nc(Nc2cn(-c3ccccc3)cn2)c2ccsc2n1 [Compound 62b, 2-(ethyl(4-(1-phenyl-1H-imidazol-4-ylamino)thieno[2,3-d]pyrimidin-2-yl)amino)ethanol] | 100 to 1000 nM
30 | COc1cc(-n2cnc(Nc3nc(N4CCC[C@@H]4C(N)=O)nc4cc(OC(C)C)ccc34)c2)cc(OC)c1OC [Compound 277a, (R)-1-(7-isopropoxy-4-((1-(3,4,5-trimethoxyphenyl)-1H-imidazol-4-yl)amino)quinazolin-2-yl)pyrrolidine-2-carboxamide] | < 100 nM
31 | COc1cc(-n2cnc(Nc3nc(N4CC5(CC5)C[C@H]4CO)c4cccn4n3)c2)cc(OC)c1OC [Compound 380d, (S)-(5-(2-((1-(3,4,5-trimethoxyphenyl)-1H-imidazol-4-yl)amino)pyrrolo[2,1-f][1,2,4]triazin-4-yl)-5-azaspiro[2.4]heptan-6-yl)methanol] | < 100 nM
32 | OC[C@@H]1CCCN1c1nc(Nc2cn(-c3cccc(O)c3O)cn2)c2cccn2n1 [Compound 424f, (S)-3-(4-((2-(2-(hydroxymethyl)pyrrolidin-1-yl)pyrrolo[2,1-f][1,2,4]triazin-4-yl)amino)-1H-imidazol-1-yl)benzene-1,2-diol] | 100 to 1000 nM
